The values below come from ChEMBL document CHEMBL1130661, “Design and synthesis of SH3 domain binding ligands: modifications of the consensus sequence XPpXP” (Bioorg Med Chem Lett, 1998).

The nature of the experiment: Compound was tested for the […] domain binding using BIA core binding assay.

Broadly, the IC50 is the concentration at which inhibition is half-maximal. Low values mean greater potency in that assay, high ones weaker potency in that assay. Broadly, the Kd is the constant that tells how readily two partners part at equilibrium. The low end stands for a tighter complex, the high end for a looser complex.

In the case of `CC(=O)N1CCC[C@@H]1C(=O)N[C@@H](CCCN=C(N)N)C(=O)N1CCC[C@@H]1C(=O)N[C@@H](CC(C)C)C(=O)N1CCC[C@]12CC[C@H]1SC[C@@H](C(=O)N[C@@H](C)C(=O)N3CCC[C@H]3C(=O)NCC(=O)O)N1C2=O`, the IC50 stood at 46 µM.

`CC(C)C[C@H](NC(=O)[C@H](CO)NC(=O)[C@@H](N)C(C)C)C(=O)N[C@@H](C)C(=O)N[C@@H](CCCN=C(N)N)C(=O)N[C@@H](CCCN=C(N)N)C(=O)N1CCC[C@H]1C(=O)N[C@@H](CC(C)C)C(=O)N1CCC[C@H]1C(=O)N1CCC[C@H]1C(=O)N[C@@H](CC(C)C)C(=O)N1CCC[C@H]1C(=O)O` showed a Kd of 1.6 µM.

In turn, `CC(=O)N1CCC[C@@H]1C(=O)N[C@@H](CCCN=C(N)N)C(=O)N1CCC[C@@H]1C(=O)N[C@@H](CC(C)C)C(=O)N1CCC[C@@]12CC[C@@H]1SC[C@H](C(=O)N[C@@H](C)C(=O)N3CCC[C@H]3C(=O)NCC(=O)O)N1C2=O` showed an IC50 of 75 µM.
